Assays:
Mexican bean beetle = assay: 7-day residual contact activity against Mexican bean beetle (percent kill); format: in vivo; settings: Epilachna varivestis, 168 h, treated surface aged seven days in light and air, read-out: Percent Kill MBB, 7-day residual activity
Experimental: (§1) The test compound was dissolved in a small amount of acetone, and the acetone solution was dispersed in water containing one drop of isooctylphenyl polyethoxyethanol to make a solution having 1250 ppm (w/w) active ingredient. Aliquots of this solution were diluted with an appropriate amount of water to provide solutions containing various concentrations of active ingredient. Test organisms and techniques were as follows: the activity against Mexican bean beetle (Epilachna varivestis Muls.) and southern armyworm (Spodoptera eridania [Cram.]) was evaluated by dipping the leaves of pinto bean plants into the test solution and infesting the leaves with the appropriate immature-form insects when the foliage had dried. The activity against the pea aphid (Acyrthosiphon pisum [Harris]) was evaluated on broad bean plants whose leaves were dipped before infestation with adult aphids. The activity against twospotted spider mites (Tetranychus urticae Koch) was evaluated on pinto bean plants whose leaves were dipped after infestation with adult mites. The activity against the milkweed bug (Oncopeltus faciatus [Dallas]) was evaluated by spraying the test solutions into glass dishes or jars containing the adult insects. Following application of the compound and infestation the tests were maintained in a holding room at 80° F. and 50% relative humidity for an exposure period of 72 hours. At the end of this time the dead and living insects or mites were counted and the percent kill was calculated. Results of these tests are summarized in Table I. Most of the compounds tested were active against all the insects.
(§2) The residual contact activity of certain of the compounds was determined on the same organisms using the techniques described above, except that in each case the treated surface was allowed to dry and was exposed to normal light and air for seven days before introduction of the mites or insects. The seven day residual activity was minimal for the mite but substantial against the remaining organisms. Again, the remarkable activity of some of these compounds against milkweed bug and Mexican bean beetle was noted.

[1] = system: pea aphid (Acyrthosiphon pisum [Harris]); assay: Initial contact activity against pea aphid (percent kill); format: in vivo; settings: 72 hours exposure, read-out: Percent Kill PA, initial activity
Experimental: as §1

[2] = system: milkweed bug (Oncopeltus faciatus [Dallas]); assay: Initial contact activity against milkweed bug (percent kill); format: in vivo; settings: 72 hours exposure, read-out: Percent Kill MWB, initial activity
Experimental: as §1

[3] = system: twospotted spider mites (Tetranychus urticae Koch); assay: Initial contact activity against twospotted spider mite (percent kill); format: in vivo; settings: 72 hours exposure, read-out: Percent Kill SM, initial activity
Experimental: as §1

[4] = system: Mexican bean beetle (Epilachna varivestis Muls.); assay: Initial contact activity against Mexican bean beetle (percent kill); format: in vivo; settings: 72 hours exposure, read-out: Percent Kill MBB, initial activity
Experimental: as §1

Pea aphid = assay: 7-day residual contact activity against pea aphid (percent kill); format: in vivo; settings: Acyrthosiphon pisum, 168 h, treated surface aged seven days in light and air, read-out: Percent Kill PA, 7-day residual activity
Experimental: as §1, §2

Southern armyworm = assay: 7-day residual contact activity against southern armyworm (percent kill); format: in vivo; settings: Spodoptera eridania, 168 h, treated surface aged seven days in light and air, read-out: Percent Kill AW, 7-day residual activity
Experimental: as §1, §2

Milkweed bug = assay: 7-day residual contact activity against milkweed bug (percent kill); format: in vivo, Oncopeltus faciatus; settings: Oncopeltus fasciatus, 168 h, treated surface aged seven days in light and air, read-out: Percent Kill MWB, 7-day residual activity
Experimental: as §1, §2

Twospotted spider mite = assay: 7-day residual contact activity against twospotted spider mite (percent kill); format: in vivo; settings: Tetranychus urticae, 168 h, treated surface aged seven days in light and air, read-out: Percent Kill SM, 7-day residual activity
Experimental: as §1, §2

[5] = system: southern armyworm (Spodoptera eridania [Cram.]); assay: Initial contact activity against southern armyworm (percent kill); format: in vivo; settings: 72 hours exposure, read-out: Percent Kill AW, initial activity
Experimental: as §1

[6] = prior art, Elliott, et al.; cited from earlier work

CC1(C)C(C=C(Cl)Sc2ccccc2)C1C(=O)OC(C#N)c1cccc(Oc2ccccc2)c1 (mixture of isomers) [Example 3, α-cyano-3-phenoxybenzyl cis,trans-3-[2-(E,Z)-chloro-2-phenylthioethenyl]-2,2-dimethylcyclopropanecarboxylate]
activity at 2.5 ppm (Mexican bean beetle; 2.5 ppm): 66% | activity at 10 ppm (Mexican bean beetle; 10 ppm): 75% | activity at 39 ppm (Mexican bean beetle; 39 ppm): 100% | activity at 78 ppm (Mexican bean beetle; 78 ppm): 100% | activity at 1250 ppm (Mexican bean beetle; 1250 ppm): 97% | mortality at 20 ppm ([1]; 20 ppm): 27% | mortality at 78 ppm ([1]; 78 ppm): 60% | mortality at 312 ppm ([1]; 312 ppm): 85% | mortality at 1250 ppm ([1]; 1250 ppm): 100% | mortality at 20 ppm ([2]; 20 ppm): 70% | mortality at 78 ppm ([2]; 78 ppm): 100% | mortality at 312 ppm ([2]; 312 ppm): 100% | mortality at 1250 ppm ([2]; 1250 ppm): 100% | mortality at 20 ppm ([3]; 20 ppm): 0% | mortality at 78 ppm ([3]; 78 ppm): 0% | mortality at 312 ppm ([3]; 312 ppm): 0% | mortality at 1250 ppm ([3]; 1250 ppm): 49% | mortality at 1.2 ppm ([4]; 1.2 ppm): 80% | mortality at 5 ppm ([4]; 5 ppm): 100% | mortality at 20 ppm ([4]; 20 ppm): 92% | mortality at 78 ppm ([4]; 78 ppm): 92% | mortality at 1250 ppm ([4]; 1250 ppm): 94% | activity at 78 ppm (Pea aphid; 78 ppm): 50% | activity at 312 ppm (Pea aphid; 312 ppm): 65% | activity at 1250 ppm (Pea aphid; 1250 ppm): 100% | activity at 20 ppm (Southern armyworm; 20 ppm): 62% | activity at 78 ppm (Southern armyworm; 78 ppm): 56% | activity at 312 ppm (Southern armyworm; 312 ppm): 53% | activity at 1250 ppm (Southern armyworm; 1250 ppm): 100% | activity at 78 ppm (Milkweed bug; 78 ppm): 70% | activity at 312 ppm (Milkweed bug; 312 ppm): 85% | activity at 1250 ppm (Milkweed bug; 1250 ppm): 100% | activity at 1250 ppm (Twospotted spider mite): 0% | mortality at 1.2 ppm ([5]; 1.2 ppm): 0% | mortality at 5 ppm ([5]; 5 ppm): 0% | mortality at 20 ppm ([5]; 20 ppm): 0% | mortality at 78 ppm ([5]; 78 ppm): 75% | mortality at 1250 ppm ([5]; 1250 ppm): 100%

CC1(C)C(C=C(Cl)Cl)C1C(=O)OCc1cccc(Oc2ccccc2)c1 (stereo not drawn) [3-phenoxybenzyl 3-(β,β-dichlorovinyl)-2,2-dimethylcyclopropanecarboxylate]
resistance to photo-oxidative degradation in words [6]: remarkably resistent to photo-oxidative degradation

Reference: US4215069A, “Arylthiovinylcyclopropanecarboxylate intermediates” (FMC Corporation, priority 1979, dated 1980)
